Values joined by “and” are separate entries in the source; they are usually repeats but may differ in a detail not shown here. Equal values may be shown once.
Columns and labels:
Test in all cases: NCI one-dose screen
Format in all cases: cell-based, human
HS 578T = settings: Breast HS 578T, 10 µM single dose
Procedure, shortened: (§1)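 At 10 μM, a single concentration, compounds were evaluated for antiproliferative effect in the NCI 60-line screen, with growth expressed relative to untreated control cells.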

MOLT-4 = settings: Leukemia MOLT-4, 10 µM single dose
Procedure, shortened: (§2)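 Screening used the full NCI panel of 60 cancer cell lines with compounds dosed once at 10 μM; the reported value is percent growth inhibition versus untreated controls.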

NCI-H522 = settings: NSCLC NCI-H522, 10 µM single dose
Procedure, shortened: (§3)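 Each cell line received compound at 10 μM as part of the NCI one-dose protocol. Values reflect growth inhibition percent calculated from growth relative to untreated controls.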

HT29 = settings: Colon HT29, 10 µM single dose
Procedure, shortened: as §1

NCI-H23 = settings: NSCLC NCI-H23, 10 µM single dose
Procedure, shortened: as §2

M14 = settings: Melanoma M14, 10 µM single dose
Procedure, shortened: as §1

A549/ATCC = settings: NSCLC A549/ATCC, 10 µM single dose
Procedure, shortened: as §1

HOP-92 = settings: NSCLC HOP-92, 10 µM single dose
Procedure, shortened: as §1

KM12 = settings: Colon KM12, 10 µM single dose
Procedure, shortened: as §2

OVCAR-4 = settings: Ovarian OVCAR-4, 10 µM single dose
Procedure, shortened: as §1

NCI-H322M = settings: NSCLC NCI-H322M, 10 µM single dose
Procedure, shortened: as §1

HCT-15 = settings: Colon HCT-15, 10 µM single dose
Procedure, shortened: as §1

CAKI-1 = settings: Renal CAKI-1, 10 µM single dose
Procedure, shortened: as §1

SF-295 = settings: CNS SF-295, 10 µM single dose
Procedure, shortened: as §1

OVCAR-3 = settings: Ovarian OVCAR-3, 10 µM single dose
Procedure, shortened: as §1

HL-60(TB) = settings: Leukemia HL-60(TB), 10 µM single dose
Procedure, shortened: as §1

NCI/ADR-RES = settings: Ovarian NCI/ADR-RES, 10 µM single dose
Procedure, shortened: as §1

BT-549 = settings: Breast BT-549, 10 µM single dose
Procedure, shortened: as §1

UACC-62 = settings: Melanoma UACC-62, 10 µM single dose
Procedure, shortened: as §1

SNB-19 = settings: CNS SNB-19, 10 µM single dose
Procedure, shortened: (§4)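 One concentration (10 μM) applied to each line of the full NCI-60 panel; percent growth compared against untreated cells.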

SR = settings: Leukemia SR, 10 µM single dose
Procedure, shortened: as §1

HCT-116 = settings: Colon HCT-116, 10 µM single dose
Procedure, shortened: as §1

DU-145 = settings: Prostate DU-145, 10 µM single dose
Procedure, shortened: as §1

SF-539 = settings: CNS SF-539, 10 µM single dose
Procedure, shortened: as §2

UO-31 = settings: Renal UO-31, 10 µM single dose
Procedure, shortened: as §3

SF-268 = settings: CNS SF-268, 10 µM single dose
Procedure, shortened: as §2

786-0 = settings: Renal 786-0, 10 µM single dose
Procedure, shortened: as §1

MDA-MB-435 = settings: Melanoma MDA-MB-435, 10 µM single dose
Procedure, shortened: as §1

SNB-75 = settings: CNS SNB-75, 10 µM single dose
Procedure, shortened: as §3

SK-MEL-28 = settings: Melanoma SK-MEL-28, 10 µM single dose
Procedure, shortened: as §1

SK-MEL-2 = settings: Melanoma SK-MEL-2, 10 µM single dose
Procedure, shortened: as §4

OVCAR-8 = settings: Ovarian OVCAR-8, 10 µM single dose
Procedure, shortened: as §1

U251 = settings: CNS U251, 10 µM single dose
Procedure, shortened: as §3

TK-10 = settings: Renal TK-10, 10 µM single dose
Procedure, shortened: as §1

Row | SMILES | Growth Percent (HS 578T) | Growth Percent (MOLT-4) | Growth Percent (NCI-H522) | Growth Percent (HT29) | Growth Percent (NCI-H23) | Growth Percent (M14) | Growth Percent (A549/ATCC) | Growth Percent (HOP-92) | Growth Percent (KM12) | Growth Percent (OVCAR-4) | Growth Percent (NCI-H322M) | Growth Percent (HCT-15) | Growth Percent (CAKI-1) | Growth Percent (SF-295) | Growth Percent (OVCAR-3) | Growth Percent (HL-60(TB)) | Growth Percent (NCI/ADR-RES) | Growth Percent (BT-549) | Growth Percent (UACC-62) | Growth Percent (SNB-19) | also measured
1 | Cc1c(C(=O)NO)sc2ncnc(Nc3ccc(NC(=S)Nc4ccccc4)cc3)c12 [Compound 7d, 1–(4-(6-(hydroxycarbamoyl)-5-methylthieno[2,3-d]pyrimidin-4-ylamino)phenyl)-3-phenylthiourea] | 104.5% and 104.57% | 111.3% and 111.35% | 92.1% and 92.13% | 102.7% and 102.73% | 96.5% and 96.54% | 104.3% | 101.3% and 101.33% | 114.8% and 114.88% | 102.1% and 102.11% | 104.6% and 104.62% | 107.3% and 107.32% | 95.3% and 95.39% | 96.5% and 96.56% | 98.3% and 98.32% | 111.0% and 111.03% | 102.7% and 102.72% | 99.5% and 99.55% | 106.3% and 106.33% | 94.9% and 94.97% | 96.4% and 96.45% | Growth Percent (SR): 110.3% and 110.34%; Growth Percent (HCT-116): 105.2% and 105.28%; Growth Percent (DU-145): 106.96%; Growth Percent (SF-539): 100.3% and 100.31%; Growth Percent (UO-31): 85.0% and 85.06%; Growth Percent (SF-268): 98.1% and 98.17%; Growth Percent (786-0): 99.1% and 99.11%; Growth Percent (MDA-MB-435): 101.3% and 101.34%; Growth Percent (SNB-75): 87.9% and 87.95%; Growth Percent (SK-MEL-28): 105.0% and 105.07%; Growth Percent (SK-MEL-2): 104.1% and 104.16%; Growth Percent (OVCAR-8): 103.1%; Growth Percent (U251): 104.0% and 104.08%; Growth Percent (TK-10): 106.3% and 106.37%
2 | Cc1c(C(=O)NO)sc2ncnc(Nc3ccc(F)c(Cl)c3)c12 [Compound 15d, 4–(3-chloro-4-fluorophenylamino)-N-hydroxy-5-methylthieno[2,3-d]pyrimidine-6-carboxamide] | 102.4% and 102.42% | 110.0% and 110.03% | 88.1% and 88.16% | 102.5% and 102.54% | 95.7% and 95.72% | 110.2% and 110.24% | 100.7% and 100.72% | 120.5% and 120.52% | 102.3% and 102.31% | 102.2% and 102.21% | 107.6% and 107.66% | 96.0% and 96.09% | 90.4% and 90.42% | 93.7% and 93.74% | 108.5% and 108.52% | 101.9% and 101.99% | 99.6% and 99.61% | 114.0% and 114.08% | 88.5% and 88.53% | 91.8% | Growth Percent (SR): 101.4% and 101.45%; Growth Percent (HCT-116): 106.8%; Growth Percent (DU-145): 101.9% and 101.96%; Growth Percent (SF-539): 98.5% and 98.57%; Growth Percent (UO-31): 77.0% and 77.07%; Growth Percent (SF-268): 96.5%; Growth Percent (786-0): 94.4% and 94.41%; Growth Percent (MDA-MB-435): 101.0% and 101.03%; Growth Percent (SNB-75): 99.2%; Growth Percent (SK-MEL-28): 109.6% and 109.62%; Growth Percent (SK-MEL-2): 100.9%; Growth Percent (OVCAR-8): 105.0% and 105.01%; Growth Percent (U251): 98.2%; Growth Percent (TK-10): 118.5% and 118.53%

Source: paper PMC8253220, “Molecular design, synthesis and in vitro biological evaluation of thienopyrimidine–hydroxamic acids as chimeric kinase HDAC inhibitors: a challenging approach to combat cancer” (Journal of Enzyme Inhibition and Medicinal Chemistry, 2021)
